Key:
Type in all cases: in vivo, human
[1] = tested on: normal volunteers, clinical model of dyspepsia (gastric distension); assay: Gastrointestinal sensations (visual analogue scales) during gastric distensions and duodenal infusion of fat emulsion
Description: (§1) The reduction of dyspeptic symptoms by lipase inhibitors, particularly orlistat, was shown in human clinical studies that measured functional dyspepsia. Specifically, we measured the reduction of dyspeptic symptoms after administration of orlistat to normal volunteers (healthy subjects without a history of gastrointestinal disease (8 female and 7 male), aged 24-38 years; normal body weight (BMI (kg/m^2): females: 21.9±0.4, males: 23.4±0.4) during infusion of a fat emulsion into the duodenum in a clinical model of idopathic dyspepsia (gastric distension). BMI means body mass index.
(§2) Fat emulsions (Table 1) were infused intraduodenally via a single-lumen, naso-duodenal polyvinyl tube as described previously (Feinle, AJP2000), while the stomach was distended. Gastrointestinal sensations were assessed by a visual analog questionnaire. […]
(§3) Studies were performed in a double-blind, placebo-controlled, cross-over fashion in randomised order at least one week apart. […] At first, the minimal distending pressure (MDP) was determined by increasing intragastric pressure in steps of 1 mmHg/min. Pressure was then fixed at MDP and fasting tone recorded until variations in gastric volume were no longer observed. […] Two isobaric distensions were performed, 15 min apart from each other, by increasing intrabag pressure in steps of 1 mmHg/min, while corresponding volumes were monitored. […]

[2] = tested on: normal volunteers, clinical model of dyspepsia (gastric distension); assay: Pressure-volume relationships during gastric distensions and duodenal infusion of fat emulsion (gastric barostat); conditions: p <0.05
Description: as §1, §2, §3

[3] = tested on: normal volunteers, clinical model of dyspepsia (gastric distension); assay: Changes in gastric tone (gastric baseline volume at MDP) during duodenal infusions; conditions: orlistat added to oil emulsion infused intraduodenally; p <0.05
Description: as §1
Fat emulsions (Table 1) were infused intraduodenally via a single-lumen, naso-duodenal polyvinyl tube as described previously (Feinle, AJP2000), while the stomach was distended. Gastrointestinal sensations were assessed by a visual analog questionnaire.
as §3

For `CCCCCCCCCCC[C@@H](C[C@@H]1OC(=O)[C@H]1CCCCCC)OC(=O)[C@H](CC(C)C)NC=O` [orlistat], the “Effects of LCTs on scores for fullness, bloating, nausea, pressure and hunger” value ([1]; increasing intragastric pressure during duodenal fat infusion) was “significantly diminished”, the “Intensity of stomach fullness and sensitivity, nausea and bloating” value ([1]; orlistat added to fat emulsion infused into the duodenum, gastric distension by inflatable balloon) was “reduced” and the “Maximally tolerated pressure during gastric distension” value [2] was “significantly increased”. For the same molecule, the “Gastric baseline volume change during infusions” value [3] was “completely abolished”.
